Measurements published in ChEMBL document CHEMBL4507275, “Data for DCP probe BI-2545” (2021).
Calls of active or inactive are those of the source. No cut-off for these calls is given here.

How the values were obtained:
[1] = biological target: T1, 5-hydroxytryptamine receptor 2A (Homo sapiens, UniProt P28223); test: GPCRScan assay: inhibition of 5-HT2A; design: radioligand conc. used [nm] 1.2 – 2.4, parental cells HEKT
[2] = biological target: Sigma non-opioid intracellular receptor 1 (Homo sapiens, UniProt Q99720); test: GPCRScan assay: inhibition of Sigma 1; design: radioligand conc. used [nm] 4.0 – 5.0, parental cells HEKT
[3] = biological target: Prostaglandin G/H synthase 1 (Homo sapiens) (UniProt P23219); test: COX-1 Cerep selectivity data (BI); details: Compound concentration 10.0 uM
[4] = biological target: 5-hydroxytryptamine receptor 1B (Rattus norvegicus) (UniProt P28564); test: 5HT1B/R Cerep selectivity data (BI); details: Compound concentration 10.0 uM
[5] = biological target: T1, 5-hydroxytryptamine receptor 2A; test: 5HT2AH_AGON Cerep selectivity data (BI); details: filed as agonist, Compound concentration 10.0 uM
[6] = biological target: 5-hydroxytryptamine receptor 2B (Homo sapiens) (UniProt P41595); test: 5HT2B/H AG Cerep selectivity data (BI); details: filed as agonist, Compound concentration 10.0 uM
[7] = biological target: Adenosine receptor A2a (Homo sapiens) (UniProt P29274); test: A2A/H Cerep selectivity data (BI); details: filed as antagonist, Compound concentration 10.0 uM
[8] = biological target: T2, Alpha-1A adrenergic receptor (Homo sapiens) (UniProt P35348); test: ALPHA1AH_ANTAG Cerep selectivity data (BI); details: filed as antagonist, Compound concentration 10.0 uM
T2 sequence (whole entry): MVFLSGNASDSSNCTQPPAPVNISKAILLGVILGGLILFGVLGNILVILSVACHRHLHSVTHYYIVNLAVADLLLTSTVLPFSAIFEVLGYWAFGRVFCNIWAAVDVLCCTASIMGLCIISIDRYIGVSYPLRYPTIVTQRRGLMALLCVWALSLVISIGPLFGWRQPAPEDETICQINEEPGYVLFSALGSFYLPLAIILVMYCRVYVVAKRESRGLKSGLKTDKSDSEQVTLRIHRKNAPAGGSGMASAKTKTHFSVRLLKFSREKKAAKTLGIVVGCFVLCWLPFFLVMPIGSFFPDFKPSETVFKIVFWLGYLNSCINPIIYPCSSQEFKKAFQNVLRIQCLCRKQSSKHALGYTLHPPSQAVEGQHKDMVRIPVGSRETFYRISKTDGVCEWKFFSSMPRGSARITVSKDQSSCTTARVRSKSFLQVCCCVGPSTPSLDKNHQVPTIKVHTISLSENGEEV

[9] = biological target: Androgen receptor (Homo sapiens) (UniProt P10275); test: ANDROGEN/H Cerep selectivity data (BI); details: Compound concentration 10.0 uM
[10] = biological target: Beta-1 adrenergic receptor (Homo sapiens) (UniProt P08588); test: BETA1/HUM Cerep selectivity data (BI); details: Compound concentration 10.0 uM
[11] = biological target: L-type voltage-gated calcium channel (dihydropyridine site), Cav1.2 alpha-1C (Rattus norvegicus, UniProt P22002); test: CA+/DHPSI/R Cerep selectivity data (BI); design: mode of action inhibitor; details: rat brain, probe [3H](+)PN200-110, compound concentration 10 uM, read-out: % Ctrl
[12] = biological target: Cannabinoid receptor 2 (Homo sapiens) (UniProt P34972); test: CB2/PERIPH/H Cerep selectivity data (BI); details: Compound concentration 10.0 uM
[13] = biological target: Cholecystokinin receptor type A (Homo sapiens) (UniProt P32238); test: CCKA/H Cerep selectivity data (BI); details: Compound concentration 10.0 uM
[14] = biological target: D(1A) dopamine receptor (Homo sapiens) (UniProt P21728); test: D1/H Cerep selectivity data (BI); details: filed as antagonist, Compound concentration 10.0 uM
[15] = biological target: D(2) dopamine receptor (Homo sapiens) (UniProt P14416); test: D2SH_AGON Cerep selectivity data (BI); details: filed as agonist, Compound concentration 10.0 uM
[16] = biological target: Sodium-dependent dopamine transporter (Homo sapiens) (UniProt Q01959); test: DATRANS/HUM Cerep selectivity data (BI); details: Compound concentration 10.0 uM
[17] = biological target: Delta-type opioid receptor (Homo sapiens) (UniProt P41143); test: DELTA2/H Cerep selectivity data (BI); details: Compound concentration 10.0 uM
[18] = biological target: Endothelin-1 receptor (Homo sapiens) (UniProt P25101); test: ETA/H Cerep selectivity data (BI); details: Compound concentration 10.0 uM
[19] = biological target: Glucocorticoid receptor (Homo sapiens) (UniProt P04150); test: GCORTICOID/H Cerep selectivity data (BI); details: Compound concentration 10.0 uM
[20] = biological target: Histamine H1 receptor (Homo sapiens) (UniProt P35367); test: H1/PYRIL/HS Cerep selectivity data (BI); details: Compound concentration 10.0 uM
hERG (KCNH2) = hERG (KCNH2) (Homo sapiens, UniProt Q12809); test: HERG_DOFETILIDE Cerep selectivity data (BI); design: mode of action inhibitor; details: probe [3H] Dofetilide, compound concentration 10 uM, read-out: % Ctrl
[21] = biological target: Potassium voltage-gated channel subfamily V member 1 (Rattus norvegicus) (UniProt P97557); test: K+/VOLT/RA Cerep selectivity data (BI); details: Compound concentration 10.0 uM
[22] = biological target: Tyrosine-protein kinase Lck (Homo sapiens) (UniProt P06239); test: LCK_CE Cerep selectivity data (BI); details: Compound concentration 10.0 uM
[23] = biological target: T3, Muscarinic acetylcholine receptor M2 (Homo sapiens) (UniProt P08172); test: M2/H Cerep selectivity data (BI); details: filed as antagonist, Compound concentration 10.0 uM
T3 sequence (whole entry): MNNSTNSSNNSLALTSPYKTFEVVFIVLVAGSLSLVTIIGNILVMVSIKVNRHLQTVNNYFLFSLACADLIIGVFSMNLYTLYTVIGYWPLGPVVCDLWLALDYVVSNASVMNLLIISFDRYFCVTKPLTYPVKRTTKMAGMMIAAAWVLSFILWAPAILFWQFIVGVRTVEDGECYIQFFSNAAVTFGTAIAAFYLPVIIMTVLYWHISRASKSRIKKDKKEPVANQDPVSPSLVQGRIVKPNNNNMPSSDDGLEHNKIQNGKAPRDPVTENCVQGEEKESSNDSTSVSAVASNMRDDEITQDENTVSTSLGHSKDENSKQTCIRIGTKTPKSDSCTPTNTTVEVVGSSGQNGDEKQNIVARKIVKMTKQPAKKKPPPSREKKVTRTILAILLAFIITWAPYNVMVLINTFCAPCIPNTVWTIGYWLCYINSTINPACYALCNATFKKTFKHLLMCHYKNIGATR

[24] = biological target: Muscarinic acetylcholine receptor M3 (Homo sapiens) (UniProt P20309); test: M3/H Cerep selectivity data (BI); details: Compound concentration 10.0 uM
[25] = biological target: MAO-A (amine oxidase [flavin-containing] A) (Rattus norvegicus, UniProt P21396); test: MAO-A_ANTAG Cerep selectivity data (BI); design: mode of action antagonist; scale not given: the % may be the effect or the level left; details: compound concentration 10 uM, read-out: % Ctrl
[26] = biological target: Glutamate receptor ionotropic, NMDA 2A (Rattus norvegicus) (UniProt Q00959); test: NMDA/R Cerep selectivity data (BI); details: Compound concentration 10.0 uM
[27] = biological target: cGMP-inhibited 3',5'-cyclic phosphodiesterase 3A (Homo sapiens) (UniProt Q14432); test: PDE3A Cerep selectivity data (BI); details: Compound concentration 10.0 uM
[28] = biological target: Sodium-dependent serotonin transporter (Homo sapiens) (UniProt P31645); test: SLC6A4/H Cerep selectivity data (BI); details: filed as antagonist, Compound concentration 10.0 uM
[29] = biological target: Vasopressin V1a receptor (Homo sapiens) (UniProt P37288); test: V1A/HUM Cerep selectivity data (BI); details: Compound concentration 10.0 uM
[30] = biological target: D(2) dopamine receptor (Homo sapiens) (UniProt P14416); details: Compound concentration 10.0 uM
[31] = biological target: Muscarinic acetylcholine receptor M1 (Homo sapiens) (UniProt P11229); details: Compound concentration 10.0 uM
Autotaxin = Autotaxin (Homo sapiens, UniProt Q13822); test: Biochemical assay: measurement of LPA (human)

T1 sequence (P28223 whole entry): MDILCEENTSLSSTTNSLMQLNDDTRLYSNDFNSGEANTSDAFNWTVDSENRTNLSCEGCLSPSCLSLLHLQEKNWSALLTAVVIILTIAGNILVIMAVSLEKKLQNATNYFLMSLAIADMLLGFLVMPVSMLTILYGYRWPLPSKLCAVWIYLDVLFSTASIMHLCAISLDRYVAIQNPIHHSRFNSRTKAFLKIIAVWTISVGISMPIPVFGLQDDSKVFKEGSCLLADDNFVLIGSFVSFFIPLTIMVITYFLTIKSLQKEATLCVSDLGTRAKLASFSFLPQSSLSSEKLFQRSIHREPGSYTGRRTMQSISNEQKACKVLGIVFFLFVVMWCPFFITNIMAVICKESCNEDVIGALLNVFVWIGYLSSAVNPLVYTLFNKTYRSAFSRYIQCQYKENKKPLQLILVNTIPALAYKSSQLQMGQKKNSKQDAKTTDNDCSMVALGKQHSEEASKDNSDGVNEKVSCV
D(2) dopamine receptor (Homo sapiens), sequence (P14416 whole entry): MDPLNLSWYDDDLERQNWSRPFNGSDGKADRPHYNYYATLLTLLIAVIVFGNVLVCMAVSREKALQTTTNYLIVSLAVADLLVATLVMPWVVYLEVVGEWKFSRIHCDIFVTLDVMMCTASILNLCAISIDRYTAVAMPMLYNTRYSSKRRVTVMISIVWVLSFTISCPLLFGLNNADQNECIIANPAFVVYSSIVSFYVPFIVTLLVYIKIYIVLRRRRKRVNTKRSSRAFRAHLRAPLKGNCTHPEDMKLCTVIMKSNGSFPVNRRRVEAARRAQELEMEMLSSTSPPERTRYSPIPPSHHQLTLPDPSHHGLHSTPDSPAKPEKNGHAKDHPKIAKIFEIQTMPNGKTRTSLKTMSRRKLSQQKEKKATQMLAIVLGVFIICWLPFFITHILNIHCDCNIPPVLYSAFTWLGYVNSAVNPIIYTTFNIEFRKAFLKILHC
Delta-type opioid receptor (Homo sapiens), sequence (P41143 whole entry): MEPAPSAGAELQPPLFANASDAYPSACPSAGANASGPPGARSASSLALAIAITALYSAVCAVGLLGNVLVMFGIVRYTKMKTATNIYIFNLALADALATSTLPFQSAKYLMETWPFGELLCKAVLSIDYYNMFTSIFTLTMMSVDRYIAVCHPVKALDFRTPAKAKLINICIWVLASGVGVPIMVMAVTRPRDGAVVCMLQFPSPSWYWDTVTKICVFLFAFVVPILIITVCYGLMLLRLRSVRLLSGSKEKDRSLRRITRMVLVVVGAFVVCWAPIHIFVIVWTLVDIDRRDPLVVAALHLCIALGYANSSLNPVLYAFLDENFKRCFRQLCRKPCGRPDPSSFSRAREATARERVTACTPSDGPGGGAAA
Cholecystokinin receptor type A (Homo sapiens), sequence (P32238 whole entry): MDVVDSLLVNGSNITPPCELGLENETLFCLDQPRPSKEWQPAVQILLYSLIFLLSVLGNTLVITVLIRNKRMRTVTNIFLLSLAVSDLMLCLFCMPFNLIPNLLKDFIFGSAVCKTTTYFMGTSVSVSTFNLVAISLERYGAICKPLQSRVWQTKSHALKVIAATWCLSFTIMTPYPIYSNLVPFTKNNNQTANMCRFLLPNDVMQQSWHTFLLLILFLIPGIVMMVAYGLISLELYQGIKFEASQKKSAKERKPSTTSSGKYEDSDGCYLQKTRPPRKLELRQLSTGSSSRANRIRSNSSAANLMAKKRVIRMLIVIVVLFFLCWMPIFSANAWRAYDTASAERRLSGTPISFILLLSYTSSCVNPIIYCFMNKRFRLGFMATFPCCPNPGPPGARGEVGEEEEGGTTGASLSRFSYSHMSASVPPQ
Beta-1 adrenergic receptor (Homo sapiens), sequence (P08588 whole entry, looked up): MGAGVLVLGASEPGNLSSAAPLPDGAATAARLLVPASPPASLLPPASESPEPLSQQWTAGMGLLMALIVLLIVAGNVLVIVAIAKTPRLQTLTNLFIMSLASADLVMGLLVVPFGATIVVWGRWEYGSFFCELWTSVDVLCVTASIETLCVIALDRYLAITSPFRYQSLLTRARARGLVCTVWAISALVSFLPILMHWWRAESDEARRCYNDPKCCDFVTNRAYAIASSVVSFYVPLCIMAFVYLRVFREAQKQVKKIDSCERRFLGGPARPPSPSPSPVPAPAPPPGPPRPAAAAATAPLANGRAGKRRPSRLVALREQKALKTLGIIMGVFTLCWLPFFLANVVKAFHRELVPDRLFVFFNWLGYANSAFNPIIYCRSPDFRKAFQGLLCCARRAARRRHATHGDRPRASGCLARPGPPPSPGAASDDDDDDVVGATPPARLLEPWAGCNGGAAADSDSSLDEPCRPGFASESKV
D(1A) dopamine receptor (Homo sapiens), sequence (P21728 whole entry): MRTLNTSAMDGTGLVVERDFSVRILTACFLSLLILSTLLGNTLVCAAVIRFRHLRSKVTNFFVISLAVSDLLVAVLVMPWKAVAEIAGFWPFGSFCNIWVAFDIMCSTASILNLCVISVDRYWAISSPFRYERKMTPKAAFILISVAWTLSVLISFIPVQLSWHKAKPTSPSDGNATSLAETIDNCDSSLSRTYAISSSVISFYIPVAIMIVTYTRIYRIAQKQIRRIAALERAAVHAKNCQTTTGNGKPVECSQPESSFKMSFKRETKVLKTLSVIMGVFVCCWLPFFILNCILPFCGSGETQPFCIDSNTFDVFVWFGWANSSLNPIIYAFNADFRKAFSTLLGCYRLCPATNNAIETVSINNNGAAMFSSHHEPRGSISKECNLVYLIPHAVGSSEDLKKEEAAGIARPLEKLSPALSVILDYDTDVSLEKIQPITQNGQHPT
Muscarinic acetylcholine receptor M1 (Homo sapiens), sequence (P11229 whole entry): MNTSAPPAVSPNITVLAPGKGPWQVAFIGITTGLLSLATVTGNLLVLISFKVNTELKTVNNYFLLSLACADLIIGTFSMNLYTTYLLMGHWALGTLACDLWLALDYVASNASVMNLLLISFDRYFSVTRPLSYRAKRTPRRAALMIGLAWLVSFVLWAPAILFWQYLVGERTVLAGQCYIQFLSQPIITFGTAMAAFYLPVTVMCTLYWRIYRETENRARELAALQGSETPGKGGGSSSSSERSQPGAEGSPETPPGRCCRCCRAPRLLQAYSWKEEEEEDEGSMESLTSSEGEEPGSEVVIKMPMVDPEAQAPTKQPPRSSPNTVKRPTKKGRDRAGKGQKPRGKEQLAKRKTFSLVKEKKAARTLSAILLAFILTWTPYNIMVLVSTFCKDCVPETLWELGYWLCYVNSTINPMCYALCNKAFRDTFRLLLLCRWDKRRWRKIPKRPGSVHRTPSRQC
MAO-A (amine oxidase [flavin-containing] A), sequence (P21396 whole entry): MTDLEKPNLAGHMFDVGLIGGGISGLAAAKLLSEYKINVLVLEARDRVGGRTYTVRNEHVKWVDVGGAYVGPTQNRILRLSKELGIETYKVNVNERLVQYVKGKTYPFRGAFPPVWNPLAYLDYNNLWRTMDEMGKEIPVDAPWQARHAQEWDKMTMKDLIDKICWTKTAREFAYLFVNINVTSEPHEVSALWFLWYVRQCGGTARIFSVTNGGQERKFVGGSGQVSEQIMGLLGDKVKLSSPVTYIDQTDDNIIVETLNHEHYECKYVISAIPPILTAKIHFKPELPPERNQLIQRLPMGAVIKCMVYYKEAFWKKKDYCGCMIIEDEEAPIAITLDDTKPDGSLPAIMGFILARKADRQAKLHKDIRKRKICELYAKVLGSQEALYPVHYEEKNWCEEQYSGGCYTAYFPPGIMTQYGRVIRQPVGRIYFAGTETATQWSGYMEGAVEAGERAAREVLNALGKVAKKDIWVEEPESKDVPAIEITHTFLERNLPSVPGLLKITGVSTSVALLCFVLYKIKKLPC
Cannabinoid receptor 2 (Homo sapiens), sequence (P34972 whole entry): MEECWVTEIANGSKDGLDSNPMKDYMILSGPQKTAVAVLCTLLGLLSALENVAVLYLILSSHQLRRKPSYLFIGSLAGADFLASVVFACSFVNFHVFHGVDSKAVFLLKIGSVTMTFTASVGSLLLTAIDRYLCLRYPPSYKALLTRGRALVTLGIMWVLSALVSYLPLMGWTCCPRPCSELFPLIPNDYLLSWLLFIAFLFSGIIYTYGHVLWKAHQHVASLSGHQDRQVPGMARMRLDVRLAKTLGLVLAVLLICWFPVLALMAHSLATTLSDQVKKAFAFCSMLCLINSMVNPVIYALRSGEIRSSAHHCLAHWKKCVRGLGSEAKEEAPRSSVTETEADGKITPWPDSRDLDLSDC
Glucocorticoid receptor (Homo sapiens), sequence (P04150 whole entry): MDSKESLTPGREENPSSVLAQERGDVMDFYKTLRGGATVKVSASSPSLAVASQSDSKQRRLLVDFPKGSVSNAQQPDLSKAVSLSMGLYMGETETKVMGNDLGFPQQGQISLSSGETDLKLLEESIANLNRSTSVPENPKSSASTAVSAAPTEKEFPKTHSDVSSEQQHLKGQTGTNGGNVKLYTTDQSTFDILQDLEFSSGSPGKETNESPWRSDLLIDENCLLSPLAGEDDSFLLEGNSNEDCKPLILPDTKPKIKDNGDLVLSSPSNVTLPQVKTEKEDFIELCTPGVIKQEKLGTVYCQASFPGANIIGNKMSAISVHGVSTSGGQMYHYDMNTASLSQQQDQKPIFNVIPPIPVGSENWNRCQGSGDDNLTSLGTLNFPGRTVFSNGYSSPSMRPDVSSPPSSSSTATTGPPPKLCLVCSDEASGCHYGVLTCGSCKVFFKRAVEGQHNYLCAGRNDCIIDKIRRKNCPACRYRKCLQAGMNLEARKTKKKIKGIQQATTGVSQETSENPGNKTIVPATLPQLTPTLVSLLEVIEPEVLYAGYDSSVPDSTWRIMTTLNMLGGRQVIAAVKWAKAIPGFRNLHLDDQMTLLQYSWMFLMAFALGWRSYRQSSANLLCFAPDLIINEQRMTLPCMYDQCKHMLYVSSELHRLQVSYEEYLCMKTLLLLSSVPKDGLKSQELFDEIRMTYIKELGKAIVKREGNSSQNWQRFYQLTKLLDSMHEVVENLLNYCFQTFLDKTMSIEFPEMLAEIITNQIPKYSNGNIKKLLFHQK

With `O=C(NC[C@@H]1[C@H]2CN(C(=O)OCc3cc(C(F)(F)F)cc(C(F)(F)F)c3)C[C@@H]12)c1ccc2[nH]nnc2c1` [BI 2545] the Ki [1] was 8.68 µM, the Ki [2] was 3.55 µM and the residual activity [3] was 82%. The residual activity [4] was 92%, the residual activity [5] was 45% and the residual activity [6] was 54%. It also gave a residual activity [7] of 107%, a residual activity [8] of 87% and a residual activity [9] of 103%. The residual activity [10] was 98%, the activity at 10 µM [11] was 20% (active) and the residual activity [12] was 77%. For the same compound, the residual activity [13] was 51%, the residual activity [14] was 92% and the residual activity [15] was 97%. It also gave a residual activity [16] of 57%, a residual activity [17] of 82% and a residual activity [18] of 92%. For the same compound, the residual activity [19] was 99%, the residual activity [20] was 101% and the activity at 10 µM (hERG (KCNH2)) was 71% (not active). It also gave a residual activity [21] of 103%, a residual activity [22] of 96% and a residual activity [23] of 100%. For the same compound, the residual activity [24] was 100%, the activity at 10 µM [25] was 70% (not active) and the residual activity [26] was 100%. The residual activity [27] was 76%, the residual activity [28] was 66% and the residual activity [29] was 80%. For the same compound, the inhibition [30] was 7.71% and the inhibition [31] was -2.87%.
For `Cc1nccc(COC(=O)N2C[C@@H]3[C@@H](CNC(=O)c4ccc5[nH]nnc5c4)[C@@H]3C2)n1` [BI 3017], the IC50 (Autotaxin) was 8.9 µM (not active).
